Series [1] deals with Sprague Dawley rats. Briefly: rat electrocardiogram/electrophysiology model, 20-min continuous intravenous infusion. It counts as in vivo. The note with it: for Percent change AH / Percent change ARP / Percent change AVRP / Percent change HR / Percent change HV / Percent change MAP / Percent change PR / Percent change QRS / Percent change QT / Percent change QTc / Percent change VRP: after a 20 min infusion, ± se. Here is the method: (§1) Adult, male Sprague Dawley rats (240-280 g) were used for all studies. Rats were anesthetized with a mixture of ketamine:xylazine (85 mg/kg:5 mg/kg, ip). Catheters were placed in the left femoral artery and left femoral vein for the measurement of arterial pressure and the administration of test agents, respectively. In addition, a catheter was placed in the right femoral vein to administer a continuous infusion of ketamine:xylazine (45 mg/kg/hr:1.5 mg/kg/hr). A recording/stimulating catheter was then placed in the right jugular vein and advanced to the right atrium. Two electrodes were used to obtain bipolar atrial electrogram recording, and two were used for bipolar pacing of the atria/heart. The right carotid artery was then cannulated with a second recording/stimulating catheter, and the catheter was advance into the left ventricle. Two electrodes were used to obtain bipolar ventricular and His bundle electrograms, and two were used to pace the ventricle. Needle electrodes were placed subcutaneously in the right axillary and left inguinal areas to record lead II electrocardiogram. After equilibration and baseline readings, continuous infusion of test agent or vehicle was started and readings taken at 10 min and 20 min after start of infusion. Blood samples for plasma analysis were obtained from the femoral artery catheter at 10 and 20 min after the start of the infusion. Atrial effective (ARP), ventricular effective (VRP), and AV node effective (AVRP) refractory periods determined as follows: excitation threshold was determined for the atria and ventricles, then a conditioning train of stimuli (S1, 1 ms duration) at a cycle length of 150 ms was delivered at 1×-2× threshold followed by an extrastimulus (S2, 1 ms duration) at 2× threshold. The S1—S2 coupling interval was decreased by 5 ms, then 1 ms intervals to obtain refractory periods. ARP and VRP were defined as the shortest coupling interval that permitted propagation of an atrial or ventricular extrastimulus. AVRP was defined as the shortest coupling interval that permitted the propagation of the atria extrastimulus through the AV node to elicit ventricular depolarization. In addition, PR, AH (both a measure of AV nodal conduction) and HV (a measure of His-Purkinje conduction) intervals were measured during short (10-20 sec) trains of fixed S1—S1 interval pacing of 150 ms. QT interval was obtained during sinus rhythm. […] Am J Physiol. 1998;274:H747-51) were reported. Compounds were dissolved in either saline or N,N-dimethylformamide. Intravenous infusion of test agents or vehicles was normalized to body weight.
In an extension of these studies to longer duration infusions, 3-[(dimethylamino)methyl]-6-methoxy-2-methyl-4-phenylisoquinolin-1(2H)-one hydrochloride and (2-isopropyl-5-methylcyclohexyl)(diphenyl)phosphine oxide were tested in a 20-min intravenous continuous infusion protocol. […] Plasma levels of 3-[(dimethylamino)methyl]-6-methoxy-2-methyl-4-phenylisoquinolin-1(2H)-one hydrochloride at 10 and 20 min after the start of a 0.1 mg/kg/min infusion were 3.4±0.2 μM and 2.8±0.3 μM, respectively.

A short description of series [2]: plasma levels during continuous intravenous infusion. The format is in vivo, rat. The following applies: for concentration at 10 min / concentration at 20 min: male, Sprague Dawley, rat, plasma, intravenous; for concentration at 10 min: 10 min after start; for concentration at 20 min: 20 min after start. The procedure:
as §1

For series [3], the system named is Sprague Dawley rats. Briefly: rat electrocardiogram/electrophysiology model, 5-min intravenous infusion paradigm. It counts as in vivo. The note with it: readings immediately after the infusion, dose dependent. Here is the method: as §1
Two infusion paradigms were tested with two structurally distinct Kv1.5 antagonists, 3-[(dimethylamino)methyl]-6-methoxy-2-methyl-4-phenylisoquinolin-1(2H)-one hydrochloride (described in WO 02/24655 A1) and (2-isopropyl-5-methylcyclohexyl)(diphenyl)phosphine oxide (described in U.S. Pat. No. 6,214,809 B1). In an initial shorter duration infusion paradigm, a 5-min intravenous infusion of compound or vehicle was administered with electrocardiogram/electrophysiology readings determined immediately after the infusion.

[4] abbreviates: 20-min infusion, dose that produced a similar increase in VRP as the Kv1.5 antagonists.
[5] abbreviates: 0.1 mg/kg/min, 20-min after start of infusion.
[6] abbreviates: 0.1 mg/kg/min, 10 min after start of infusion.
Setting [7] is: 0.2 mg/kg/min, DMF vehicle, 20-min infusion.
The mark [8] stands for this setting: 0.2 mg/kg/min, saline vehicle, 10-min post infusion.
Where [9] appears, read: 0.2 mg/kg/min, saline vehicle, 20 min after start of infusion.
[10] abbreviates: 0.2 mg/kg/min, 10-min post infusion.
Where [11] appears, read: 0.2 mg/kg/min, listed as (2-isopropyl-5-methylcyclohexyl)(diphenyl)phosphine oxide.
Setting [12] is: dose that caused a similar decrease in blood pressure as 0.03 mg/kg/min amlodipine.
[13] abbreviates: doses that caused similar blood pressure lowering as higher infusion rates of amlodipine.

Structures are written as SMILES.

This note sets out measurements from patent US20070134157A1, “Biological assay” (priority 2004, published 2007).

As for `CS(=O)(=O)Nc1ccc2c(c1)C(O)CC1(CCN(C3CCc4cc(C#N)ccc4C3)CC1)O2.Cl` [Ikr blocker, N-[1′-(6-cyano-1,2,3,4-tetrahydro-2(R)-naphthalenyl)-3,4-dihydro-4(R)-hydroxyspiro[2H-1-benzopyran-2,4′-piperidin]-6-YL]-,(+)-,monohydrochloride], in the series on Sprague Dawley rats [1] (0.0001 mg/kg/min), the “Percent change AH” value is 2 ± 1%, the “Percent change ARP” value was 0 ± 2%, the “Percent change AVRP” value is given as 1 ± 2% and the “Percent change HR” value was −1 ± 5%. Moreover, in the series with Sprague Dawley rats [1] (0.0001 mg/kg/min), the “Percent change HV” value is recorded as −1 ± 1%, the “Percent change MAP” value is reported as −7 ± 8%, the “Percent change PR” value was found to be 2 ± 2% and the “Percent change QRS” value was determined as 0 ± 1%. Moreover, in the series with Sprague Dawley rats [1] (0.0001 mg/kg/min), the “Percent change QT” value worked out at 1 ± 1%, the “Percent change QTc” value was 0 ± 2% and the “Percent change VRP” value was −2 ± 1%. Besides, in the series with Sprague Dawley rats [1] (0.001 mg/kg/min), the “Percent change AH” value turned out to be 9 ± 1%, the “Percent change ARP” value came out at 2 ± 4%, the “Percent change AVRP” value came out at 11 ± 1% and the “Percent change HR” value was 3 ± 4%. In addition, in the series with Sprague Dawley rats [1] (0.001 mg/kg/min), the “Percent change HV” value was −4 ± 3%, the “Percent change MAP” value is listed as −1 ± 3%, the “Percent change PR” value is recorded as 8 ± 1% and the “Percent change QRS” value is listed as 3 ± 1%. In the series with Sprague Dawley rats [1] (0.001 mg/kg/min), the “Percent change QT” value is −1 ± 1%, the “Percent change QTc” value amounted to 1 ± 1% and the “Percent change VRP” value was determined as 0 ± 1%. Besides, in the series on Sprague Dawley rats [1] (0.03 mg/kg/min), the “Percent change AH” value turned out to be 13 ± 4%, the “Percent change ARP” value stood at 4 ± 4%, the “Percent change AVRP” value is listed as 21 ± 3% and the “Percent change HR” value worked out at 22 ± 5%. In the series on Sprague Dawley rats [1] (0.03 mg/kg/min), the “Percent change HV” value came to 4 ± 3%, the “Percent change MAP” value came out at 18 ± 5%, the “Percent change PR” value is given as 9 ± 4% and the “Percent change QRS” value came to 0 ± 1%. In the series with Sprague Dawley rats [1] (0.03 mg/kg/min), the “Percent change QT” value was found to be 11 ± 3%, the “Percent change QTc” value was found to be 23 ± 5% and the “Percent change VRP” value is on record as 7 ± 2%. Also, in the series on Sprague Dawley rats [1] (setting [4]), the “increase in AH interval (delay in AV node conduction)” value is approximately 13%, the “increase in AVRP” value came to 21%, the “increase in HR” value is on record as 22% and the “increase in MAP” value was 18%. In the series with Sprague Dawley rats [1] (infusion of lower doses), the ARP result is “no change”, the AVRP result is recorded as “significant changes” and the VRP entry was “no change”. Besides, the plasma concentrations in series [2] (setting [4]) was approximately 0.6 µM. For the same compound, the plasma concentration in series [2] (infusion of lower doses) came out at 0.027 µM.

For the compound `CCOC(=O)C1=C(COCCN)NC(C)=C(C(=O)OC)C1c1ccccc1Cl` (centres unmarked) [amlodipine], the “decrease in blood pressure” value with Sprague Dawley rats [1] (0.03 mg/kg/min for 20 min) is on record as −14%. Also, in the series with Sprague Dawley rats [1] (higher infusion rates), the “decrease in blood pressure” value is given as 30%, the “increase in AV nodal conduction” value came to 6% and the “increase in AV nodal refractoriness” value is on record as 7%.

As to `COc1ccc2c(=O)n(C)c(CN(C)C)c(-c3ccccc3)c2c1.Cl` [compound 1, 3-[(dimethylamino)methyl]-6-methoxy-2-methyl-4-phenylisoquinolin-1(2H)-one hydrochloride], in the series with Sprague Dawley rats [1] (setting [5]), the ARP result was “no change”, the “increase in QT” value amounted to 10%, the “increase in QTc” value amounted to 16% and the “increase in VRP” value came to 5%. In addition, the “increase in heart rate” value with Sprague Dawley rats [1] (setting [5]) came out at 5%. Also, in the series with Sprague Dawley rats [1] (setting [6]), the ARP entry is “no change”, the QT entry is on record as “slight increase”, the QTc result is given as “slight increase” and the VRP entry was “no change”. Moreover, in the series with Sprague Dawley rats [1] (setting [7]), the “increase in ARP” value came out at 8%, the “increase in QT” value is given as 11% and the “increase in VRP” value was 13%. Moreover, in the series with Sprague Dawley rats [1] (0.2 mg/kg/min), the “Percent change AH” value is recorded as 5 ± 1%, the “Percent change ARP” value is 5 ± 3%, the “Percent change AVRP” value was 4 ± 2% and the “Percent change HR” value was −1 ± 4%. Also, in the series with Sprague Dawley rats [1] (0.2 mg/kg/min), the “Percent change HV” value was 0 ± 3%, the “Percent change MAP” value stood at 2 ± 2%, the “Percent change PR” value was determined as 3 ± 1% and the “Percent change QRS” value was 0 ± 0%. In the series on Sprague Dawley rats [1] (0.2 mg/kg/min), the “Percent change QT” value stood at 12 ± 2%, the “Percent change QTc” value was found to be 11 ± 2% and the “Percent change VRP” value is listed as 13 ± 1%. In the series with Sprague Dawley rats [1] (setting [8]), the QT entry is given as “significant increases” and the VRP result is “significant increases”. In addition, in the series with Sprague Dawley rats [1] (setting [9]), the “change in RR interval” value is −17%, the heart rate entry is “significant increases”, the “increase in ARP” value is 12% and the “increase in QT interval” value is 14%. Moreover, in the series on Sprague Dawley rats [1] (setting [9]), the “increase in QTc” value is 24% and the “increase in VRP” value is listed as 11%. In addition, in the series on Sprague Dawley rats [3], the ARP entry is listed as “increases”, the QT interval entry is given as “increases” and the VRP entry was “increases”. Further, the “plasma levels, saline group versus DMF group” value in series [2] (0.2 mg/kg/min, dissolved in saline or DMF) is recorded as “similar”. Also, in series [2] (0.1 mg/kg/min infusion), the concentration at 10 min came out at 3.4 ± 0.2 µM and the concentration at 20 min came out at 2.8 ± 0.3 µM. In series [2] (0.2 mg/kg/min infusion), this compound gave a concentration at 10 min of 6.3 ± 0.5 µM and a concentration at 20 min of 5.5 ± 0.2 µM.

With `CC1CCC(C(C)C)C(P(=O)(c2ccccc2)c2ccccc2)C1` (centres unmarked) [compound 2, (2-isopropyl-5-methylcyclohexyl)(diphenyl)phosphine oxide], in the series on Sprague Dawley rats [1] (setting [10]), the ARP entry was “significant increases”, the QT entry is listed as “significant increases” and the VRP result is “significant increases”. In addition, in the series on Sprague Dawley rats [1] (0.2 mg/kg/min), the “Percent change AH” value is recorded as −1 ± 1%, the “Percent change ARP” value amounted to 26 ± 4%, the “Percent change AVRP” value is −1 ± 1% and the “Percent change HR” value turned out to be 8 ± 6%. In the series with Sprague Dawley rats [1] (0.2 mg/kg/min), the “Percent change HV” value is listed as −8 ± 3%, the “Percent change MAP” value was found to be 4 ± 4%, the “Percent change PR” value is reported as −3 ± 1% and the “Percent change QRS” value was −3 ± 4%. In addition, in the series on Sprague Dawley rats [1] (0.2 mg/kg/min), the “Percent change QT” value came out at 27 ± 7%, the “Percent change QTc” value worked out at 33 ± 8% and the “Percent change VRP” value is listed as 22 ± 5%. For the same compound, in the series with Sprague Dawley rats [1] (setting [11]), the “Percent change ARP” value was determined as 24%, the “Percent change QT” value is on record as 27%, the “Percent change QTc” value is on record as 33% and the “Percent change VRP” value turned out to be 22%. Moreover, in the series with Sprague Dawley rats [3], the ARP result was “increases”, the QT interval result is recorded as “increases” and the VRP entry was “increases”.

On to `COc1ccc([C@@H]2Sc3ccccc3N(CCN(C)C)C(=O)[C@@H]2OC(C)=O)cc1` [diltiazem], for which, in the series with Sprague Dawley rats [1] (setting [12]), the “decrease in heart rate” value is 12%, the “increase in AV nodal conduction” value is 9% and the “increase in AV nodal refractoriness” value was determined as 10%. In the series on Sprague Dawley rats [1] (setting [13]), the blood pressure lowering is reported as 23%, the “increase in AV nodal conduction” value stood at 15% and the “increase in AV nodal refractoriness” value is given as 19%.

For the compound `CCN(CC)CCNC(=O)c1ccc(N)cc1` [procainamide], in the series on Sprague Dawley rats [1] (infusion at increasing rates), the HV interval result is “dose-dependent increases”, the QRS interval result is “dose-dependent increases”, the blood pressure result is reported as “without having significant effects” and the heart rate result is reported as “without having significant effects”.
